Holding throughout (assay type): cell-based
Common to all, as to conditions: 72 hours treatment, cell survival by CellTiter-Glo, 2% fetal bovine serum
Background: Cellular ATP, detected with luciferase, serves as a proxy for viable cell number.

The subject of one assay is A549 cells. The experiment in a line: Cell viability (CellTiter-Glo ATP content) in A549 cells. The gist of the method:
(§1)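 Cells plated at 5,000 per well in antibiotic-free RPMI with 2% FBS, treated next day in triplicate with increasing compound doses (final DMSO 0.5%) for 72 hours. Viability read as ATP content by CellTiter-Glo luminescence; percent survival relative to vehicle control set as 100%.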

A further assay relates to LOX cells. The experiment in a line: Cell viability (CellTiter-Glo ATP content) in LOX cells. The gist of the method: as §1
The subject of another assay is MelJuSo cells. The experiment in a line: Cell viability (CellTiter-Glo ATP content) in MelJuSo cells. A digest of the protocol:
as §1

23 compounds from patent US12227482B2, “Compounds and compositions for the treatment of cancer” (The Regents of the University of California, priority 2016, dated 2025) can be followed below.

The term IC50 denotes the midpoint of a concentration-inhibition curve. Low values mean higher potency, high ones lower potency.

With `CCCCC1C(c2ccc(F)cc2)=NN(c2ccccc2)C1(C)C(=O)NCCc1ccc(O)cc1` (stereo not drawn) [Compound 38, 4-butyl-3-(4-fluorophenyl)-N-(4-hydroxyphenethyl)-5-methyl-1-phenyl-4,5-dihydro-1H-pyrazole-5-carboxamide], the IC50 with A549 cells (Homo sapiens, A549, 72 h) is above 2 µM; with LOX cells (LOX, 72 h), above 2 µM; in the assay on MelJuSo cells (Homo sapiens, MEL-JUSO), 0.5 to 1 µM.

Turning to `COCCNC(=O)C1(C)C(c2cccs2)C(c2ccc(F)cc2)=NN1c1ccc(F)cc1F` (stereo not drawn) [Compound 60, 1-(2,4-difluorophenyl)-3-(4-fluorophenyl)-N-(2-methoxyethyl)-5-methyl-4-(thiophen-2-yl)-4,5-dihydro-1H-pyrazole-5-carboxamide], the IC50 in the assay with A549 cells (Homo sapiens, A549, 72 h) is 0.25 to 0.5 µM; in the assay with LOX cells (LOX, 72 h), below 0.25 µM; in the assay on MelJuSo cells (Homo sapiens, MEL-JUSO), below 0.25 µM.

With `CC(C)(CO)CCCNC(=O)C1(C)C(c2ccsc2)C(c2ccc(F)cc2)=NN1c1ccc(F)cc1F` (stereo not drawn) [Compound 85, 1-(2,4-difluorophenyl)-3-(4-fluorophenyl)-N-(5-hydroxy-4,4-dimethylpentyl)-5-methyl-4-(thiophen-3-yl)-4,5-dihydro-1H-pyrazole-5-carboxamide], the IC50 is 0.25 to 0.5 µM with A549 cells (Homo sapiens, A549, 72 h); below 0.25 µM in the assay on LOX cells (LOX, 72 h); below 0.25 µM in the assay on MelJuSo cells (Homo sapiens, MEL-JUSO).

In the case of `CCCCC1(C)C(c2ccc(F)cc2)=NN(c2ccc(F)cc2F)C1(C)C(=O)NCCCC(C)(C)CO` (stereo not drawn) [Compound 87, 4-butyl-1-(2,4-difluorophenyl)-3-(4-fluorophenyl)-N-(5-hydroxy-4,4-dimethylpentyl)-4,5-dimethyl-4,5-dihydro-1H-pyrazole-5-carboxamide], the IC50 in the assay with A549 cells (Homo sapiens, A549, 72 h) is above 2 µM; in the assay with LOX cells (LOX, 72 h), above 2 µM; with MelJuSo cells (Homo sapiens, MEL-JUSO) it was above 2 µM.

As for `CCCCC1C(c2ccc(F)cc2F)=NN(c2ccc(F)cc2F)C1(C)C(=O)NCCCC(C)(C)CO` (stereo not drawn) [Compound 89, 4-butyl-1,3-bis(2,4-difluorophenyl)-N-(5-hydroxy-4,4-dimethylpentyl)-5-methyl-4,5-dihydro-1H-pyrazole-5-carboxamide], the IC50 was 1 to 2 µM in the assay with A549 cells (Homo sapiens, A549, 72 h); 0.5 to 1 µM with LOX cells (LOX, 72 h); 0.5 to 1 µM in the assay with MelJuSo cells (Homo sapiens, MEL-JUSO).

For the compound `CCCCC1C(c2c(F)cc(F)cc2F)=NN(c2ccc(F)cc2F)C1(C)C(=O)NCCCC(C)(C)CO` (stereo not drawn) [Compound 97, 4-butyl-1-(2,4-difluorophenyl)-N-(5-hydroxy-4,4-dimethylpentyl)-5-methyl-3-(2,4,6-trifluorophenyl)-4,5-dihydro-1H-pyrazole-5-carboxamide], the IC50 in the assay with A549 cells (Homo sapiens, A549, 72 h) was above 2 µM; in the assay with LOX cells (LOX, 72 h), 1 to 2 µM; with MelJuSo cells (Homo sapiens, MEL-JUSO), 0.5 to 1 µM.

For `CC(C)(CO)CCCNC(=O)C1(C)C(c2ccco2)C(c2ccc(F)cc2)=NN1c1ccc(F)cc1F` (stereo not drawn) [Compound 91, 1-(2,4-difluorophenyl)-3-(4-fluorophenyl)-4-(furan-2-yl)-N-(5-hydroxy-4,4-dimethylpentyl)-5-methyl-4,5-dihydro-1H-pyrazole-5-carboxamide], the IC50 with A549 cells (Homo sapiens, A549, 72 h) was 0.25 to 0.5 µM; in the assay with LOX cells (LOX, 72 h), 0.25 to 0.5 µM; in the assay with MelJuSo cells (Homo sapiens, MEL-JUSO), below 0.25 µM.

For the compound `CCCCC1C(c2ccc(F)cc2)=NN(c2ccccc2)C1(C)C(=O)NC(C)c1ccc(S(C)(=O)=O)cc1` (stereo not drawn) [Compound 69, 4-butyl-3-(4-fluorophenyl)-5-methyl-N-(1-(4-(methylsulfonyl)phenyl)ethyl)-1-phenyl-4,5-dihydro-1H-pyrazole-5-carboxamide], the IC50 with A549 cells (Homo sapiens, A549, 72 h) is above 2 µM; with LOX cells (LOX, 72 h), above 2 µM; with MelJuSo cells (Homo sapiens, MEL-JUSO), above 2 µM.

Consider `COC(=O)CNC(=O)C1(C)C(c2ccc(Cl)o2)C(c2ccc(F)cc2F)=NN1c1ccc(F)cc1F` (stereo not drawn) [Compound 121, methyl 2-(4-(5-chlorofuran-2-yl)-1,3-bis(2,4-difluorophenyl)-5-methyl-4,5-dihydro-1H-pyrazole-5-carboxamido)acetate], for which the IC50 in the assay on A549 cells (Homo sapiens, A549, 72 h) was below 0.25 µM; in the assay on LOX cells (LOX, 72 h), below 0.25 µM; in the assay with MelJuSo cells (Homo sapiens, MEL-JUSO) it was below 0.25 µM.

Regarding `CCCCC1C(c2ccc(Cl)cc2)=NN(c2ccccc2)C1(C)C(=O)NCCOC` (stereo not drawn) [Compound 58, 4-butyl-3-(4-chlorophenyl)-N-(2-methoxyethyl)-5-methyl-1-phenyl-4,5-dihydro-1H-pyrazole-5-carboxamide], the half-maximal inhibitory concentration (IC50) was above 2 µM with A549 cells (Homo sapiens, A549, 72 h); 1 to 2 µM in the assay with LOX cells (LOX, 72 h); 1 to 2 µM in the assay with MelJuSo cells (Homo sapiens, MEL-JUSO).

On to `CCCCC1C(c2ccc(F)cc2)=NN(c2cccc(F)c2)C1(C)C(=O)NCCCOC` (stereo not drawn) [Compound 8, 4-butyl-1-(3-fluorophenyl)-3-(4-fluorophenyl)-N-(3-methoxypropyl)-5-methyl-4,5-dihydro-1H-pyrazole-5-carboxamide], for which the IC50 was above 2 µM in the assay with A549 cells (Homo sapiens, A549, 72 h); above 2 µM with LOX cells (LOX, 72 h); 1 to 2 µM in the assay on MelJuSo cells (Homo sapiens, MEL-JUSO).

Consider `CCCCC1C(c2c(F)cc(F)cc2F)=NN(c2ccc(F)cc2F)C1(C)C(=O)NCC(=O)OC` (stereo not drawn) [Compound 98, methyl 2-(4-butyl-1-(2,4-difluorophenyl)-5-methyl-3-(2,4,6-trifluorophenyl)-4,5-dihydro-1H-pyrazole-5-carboxamido)acetate], for which the IC50 with A549 cells (Homo sapiens, A549, 72 h) is above 2 µM; with LOX cells (LOX, 72 h), above 2 µM; with MelJuSo cells (Homo sapiens, MEL-JUSO) it was 0.5 to 1 µM.

Take `COC(=O)CNC(=O)C1(C)C(c2ccc(Cl)o2)C(c2ccc(F)cc2F)=NN1c1ccc(F)cc1F` (stereo not drawn) [Compound 134, methyl 2-(4-(5-chlorofuran-2-yl)-1,3-bis(2,4-difluorophenyl)-5-methyl-4,5-dihydro-1H-pyrazole-5-carboxamido)acetate]: the IC50 in the assay on A549 cells, in the assay on LOX cells and in the assay on MelJuSo cells was below 0.25 µM each time.

Consider `COCCNC(=O)C1(C)C(c2ccco2)C(c2ccc(F)cc2F)=NN1c1ccc(F)cc1F` (stereo not drawn) [Compound 116, 1,3-bis(2,4-difluorophenyl)-4-(furan-2-yl)-N-(2-methoxyethyl)-5-methyl-4,5-dihydro-1H-pyrazole-5-carboxamide], for which the concentration for half-maximal inhibition (IC50) is 0.25 to 0.5 µM in the assay with A549 cells (Homo sapiens, A549, 72 h); below 0.25 µM in the assay on LOX cells (LOX, 72 h); below 0.25 µM with MelJuSo cells (Homo sapiens, MEL-JUSO).

`CC1(C(=O)NCC(O)CCO)C(c2cccs2)C(c2ccc(F)cc2)=NN1c1ccc(F)cc1F` (stereo not drawn) [Compound 124, 1-(2,4-difluorophenyl)-N-(2,4-dihydroxybutyl)-3-(4-fluorophenyl)-5-methyl-4-(thiophen-2-yl)-4,5-dihydro-1H-pyrazole-5-carboxamide]: the IC50 is above 2 µM in the assay on A549 cells (Homo sapiens, A549, 72 h); above 2 µM in the assay on LOX cells (LOX, 72 h); above 2 µM with MelJuSo cells (Homo sapiens, MEL-JUSO).

For `CCCCC1C(c2ccc(F)cc2)=NN(c2ccc(F)cc2F)C1(C)C(=O)NCCOC` (stereo not drawn) [Compound 6, 4-butyl-1-(2,4-difluorophenyl)-3-(4-fluorophenyl)-N-(2-methoxyethyl)-5-methyl-4,5-dihydro-1H-pyrazole-5-carboxamide], the half-maximal inhibitory concentration (IC50) with A549 cells (Homo sapiens, A549, 72 h) lay in the range of 0.5 to 1 µM; with LOX cells (LOX, 72 h), 0.5 to 1 µM; in the assay with MelJuSo cells (Homo sapiens, MEL-JUSO), 0.5 to 1 µM.

Take `CCCCC1C(c2ccc(F)cc2F)=NN(c2ccc(F)cc2F)C1(C)C(=O)NCCOC` (stereo not drawn) [Compound 90, 4-butyl-1,3-bis(2,4-difluorophenyl)-N-(2-methoxyethyl)-5-methyl-4,5-dihydro-1H-pyrazole-5-carboxamide]: the IC50 with A549 cells (Homo sapiens, A549, 72 h) was 0.5 to 1 µM; in the assay with LOX cells (LOX, 72 h), 0.5 to 1 µM; with MelJuSo cells (Homo sapiens, MEL-JUSO) it was below 0.25 µM.

Take `CCCCC1C(c2ccc(S(C)(=O)=O)cc2)=NN(c2ccc(F)cc2F)C1(C)C(=O)NCCOC` (stereo not drawn) [Compound 114, 4-butyl-1-(2,4-difluorophenyl)-N-(2-methoxyethyl)-5-methyl-3-(4-(methylsulfonyl)phenyl)-4,5-dihydro-1H-pyrazole-5-carboxamide]: the IC50 is above 2 µM in the assay with A549 cells (Homo sapiens, A549, 72 h); above 2 µM with LOX cells (LOX, 72 h); above 2 µM in the assay with MelJuSo cells (Homo sapiens, MEL-JUSO).

Turning to `CCCCC1C(c2ccc(F)cc2)=NN(c2ccccc2)C1(C)C(=O)NCCCC(C)(C)CO` (stereo not drawn) [Compound 1, 4-butyl-3-(4-fluorophenyl)-N-(5-hydroxy-4,4-dimethylpentyl)-5-methyl-1-phenyl-4,5-dihydro-1H-pyrazole-5-carboxamide], the IC50 with A549 cells (Homo sapiens, A549, 72 h) was 0.5 to 1 µM; in the assay on LOX cells (LOX, 72 h), 0.5 to 1 µM; in the assay on MelJuSo cells (Homo sapiens, MEL-JUSO), 0.25 to 0.5 µM.

In the case of `CC(C)(CO)CCCNC(=O)C1(C)C(c2cccs2)C(c2ccc(F)cc2)=NN1c1ccccc1` (stereo not drawn) [Compound 20, 3-(4-fluorophenyl)-N-(5-hydroxy-4,4-dimethylpentyl)-5-methyl-1-phenyl-4-(thiophen-2-yl)-4,5-dihydro-1H-pyrazole-5-carboxamide], the IC50 in the assay with A549 cells (Homo sapiens, A549, 72 h) lay within 0.5 to 1 µM; in the assay on LOX cells (LOX, 72 h), 0.5 to 1 µM; with MelJuSo cells (Homo sapiens, MEL-JUSO), 0.25 to 0.5 µM.

Consider `CCCCC1C(c2ccc(F)cc2)=NN(c2cccc(F)c2)C1(C)C(=O)NCCCCC(C)(C)O` (stereo not drawn) [Compound 7, 4-butyl-1-(3-fluorophenyl)-3-(4-fluorophenyl)-N-(5-hydroxy-5-methylhexyl)-5-methyl-4,5-dihydro-1H-pyrazole-5-carboxamide], for which the IC50 in the assay on A549 cells (Homo sapiens, A549, 72 h) was above 2 µM; in the assay on LOX cells (LOX, 72 h), 1 to 2 µM; with MelJuSo cells (Homo sapiens, MEL-JUSO), 0.5 to 1 µM.

`CCCCC1C(c2ccc(F)cc2)=NN(c2ccccc2)C1(C)C(=O)N(C)Cc1ccc(OC)c(OC)c1` (stereo not drawn) [Compound 47, 4-butyl-N-(3,4-dimethoxybenzyl)-3-(4-fluorophenyl)-N,5-dimethyl-1-phenyl-4,5-dihydro-1H-pyrazole-5-carboxamide]: the IC50 is above 2 µM with A549 cells (Homo sapiens, A549, 72 h); above 2 µM in the assay on LOX cells (LOX, 72 h); above 2 µM in the assay on MelJuSo cells (Homo sapiens, MEL-JUSO).

`CC1(C(=O)NCC(=O)N2CCOCC2)C(c2cccs2)C(c2ccc(F)cc2)=NN1c1ccc(F)cc1F` (stereo not drawn) [Compound 106, 1-(2,4-difluorophenyl)-3-(4-fluorophenyl)-5-methyl-N-(2-morpholino-2-oxoethyl)-4-(thiophen-2-yl)-4,5-dihydro-1H-pyrazole-5-carboxamide]: the IC50 is above 2 µM with A549 cells (Homo sapiens, A549, 72 h); above 2 µM in the assay with LOX cells (LOX, 72 h); above 2 µM in the assay on MelJuSo cells (Homo sapiens, MEL-JUSO).
